Results reported in patent publication US20230131630A1, “METHOD OF SCREENING FOR A SUBSTANCE THAT ACTS ON A CELL MASS” (LSI MEDIENCE CORPORATION, priority 2017, published 2023).

Tests used:
[1] = tested on: PDX tumor of pancreatic cancer (1); experiment: In vivo anticancer drug sensitivity test, PDX tumor grafted subcutaneously in immunodeficient mice; conditions: super SCID mouse, subcutaneous graft; gemcitabine 60 mg/kg/time twice weekly for 4 weeks; FIG. 8 left
Experimental: An in vivo anticancer drug sensitivity test was performed by the following procedures with reference to a known method. A PDX tumor of pancreatic cancer (1), which was subcutaneously grown in an immunodeficient mouse [super SCID mouse (strain name: C3H/HeJ/NOs-scid; LPS-nonresponder)], was aseptically extracted in a safety cabinet, and every necrotic area of the tumor was removed with surgical scissors. Subsequently, graft tumor fragments each having a size of about 2 to 3 mm square were prepared and subcutaneously grafted in at least 12 immunodeficient mice. When the average tumor volume reached about 200 mm^3, the mice were grouped by tumor volume and assigned to a control group and a gemcitabine administration group (N = 6: 6 mice each under the same conditions). Gemcitabine (60 mg/kg/time) was administered at a dosing frequency of twice weekly for 4 weeks. The tumor diameter was measured at a frequency of twice weekly and the tumor volume was calculated, thereby creating a tumor proliferation curve.

[2] = tested on: cell mass of primary cancer cells from PDX tumor of pancreatic cancer (1); experiment: In vitro anticancer drug sensitivity test, ATP assay (CellTiter-Glo 3D) on three-dimensionally cultured cell mass; format: cell-based, human; conditions: fresh tumor; gemcitabine 0.001-10 µmol/L from Day 7, ATP assay on Day 14; FIG. 8 right
Experimental: A half of medium exchange was performed with a culture medium supplemented with gemcitabine on Day 7. A half of medium exchange was performed with a culture medium supplemented with gemcitabine which was adjusted to maintain the final concentration on Days 10 and 12. On Day 14, ATP assay was performed, and the proportion based on the result of each gemcitabine concentration group was calculated when the result at a gemcitabine concentration of 0 µmol / L was defined as a cell viability of 100%, thereby creating a cell viability curve. An in vitro anticancer drug sensitivity test was performed by the following procedures. After dispersion treatment, the necessary amount of cells counted were collected in a 15-mL tube, and the supernatant was removed by centrifugation at 300 × g for 5 min. Thereafter, a cell suspension was prepared so that the cell count was 5 × 10^4 cells/mL using a medium prepared by adding Corning Matrigel GFR (Corning Incorporated) to StemPro hESC SFM (Thermo Fisher Scientific K.K.) to yield a final concentration of 2% v/v. […] The seeded cell count was 1 × 10^4 cells/200 µL/well, and the day of seeding was determined to be Day 0. […] The proportion of the result of each gemcitabine concentration group was calculated when the result at a gemcitabine concentration of 0 µmol / L was defined as a cell viability of 100%, thereby creating a cell viability curve.

[3] = tested on: cell mass originating from the once-frozen PDX tumor of pancreatic cancer (1); experiment: In vitro gemcitabine sensitivity test, ATP assay on cell mass from once-frozen tumor tissue; format: cell-based, human; conditions: gemcitabine 0.001-10 µmol/L from Day 3, ATP assay on Day 7, FIG. 9
Experimental: The PDX tumor of pancreatic cancer (1) (procured from National Institutes of Biomedical Innovation, Health and Nutrition) was extracted in accordance with Example 1. The tumor was immersed in CELLBANKER 1 (Takara Bio Inc.) and frozen by a Program Deep Freezer (Nepa Gene Co., Ltd.), thereby preparing a frozen tumor. The frozen tumor was thawed in a warm bath at 37° C. and washed with HBSS (Thermo Fisher Scientific K.K.), and then, primary cancer cells were prepared in accordance with Example 1. After dispersion treatment, the necessary amount of cells counted were collected in a 15-mL tube, and the supernatant was removed by centrifugation at 300 × g for 5 min. […] The seeded cell count was 1 × 10^4 cells/200 µL/well, and the day of seeding was determined to be Day 0. […] The proportion of the result of each measurement day with respect to the result of Day 0 was calculated, and a proliferation curve was created. The proportion based on the result of each gemcitabine concentration group was calculated when the result at a gemcitabine concentration of 0 µmol / L was defined as a cell viability of 100%, thereby creating a cell viability curve.

[4] = tested on: reproduced cell mass originating from the PDX tumor of pancreatic cancer (1); experiment: In vitro gemcitabine sensitivity test, ATP assay on subcultured (reproduced) cell mass; format: cell-based, human; conditions: fresh or frozen tumor-derived, gemcitabine 0.001-10 µmol/L from Day 3, ATP assay on Day 7, FIGS. 10-1, 10-2
Experimental: A fresh tumor-derived cell mass and a frozen tumor-derived cell mass were obtained in accordance with Examples 1 and 10, respectively, using a PDX tumor of pancreatic cancer (1) (procured from National Institutes of Biomedical Innovation, Health and Nutrition). Each cell mass was collected in a 50-mL tube, and the supernatant was removed by centrifugation at 300 × g for 5 min. Thereafter, the cell mass was suspended in TrypLE (Thermo Fisher Scientific K.K.) and enzymatically treated in a warm bath at 37° C. The reaction was weakened by adding 10 times the amount of HBSS (Thermo Fisher Scientific K.K.) to the reaction solution. The undispersed residues were removed by passing the mixture through a 100-µm cell strainer. […]
The necessary amount of cells were collected in a 15-mL tube, and the supernatant was removed by centrifugation at 300 × g for 5 min. […] The seeded cell count was 1 × 10^4 cells/200 µL/well (fresh tumor-derived) or 4 × 10^3 cells/200 µL/well (frozen tumor-derived), and the day of seeding was determined to be Day 0. […] The ratio of the result of each measurement day with respect to the result of Day 0 was calculated, and a growth curve was created. The proportion based on the result of each gemcitabine concentration group was calculated when the result at a gemcitabine concentration of 0 µmol/L was defined as a cell viability of 100%, thereby creating a cell viability curve. […]

Nc1ccn([C@@H]2O[C@H](CO)[C@@H](O)C2(F)F)c(=O)n1 [Gemcitabine, gemcitabine]
inhibited proliferation: proliferation of the PDX tumor (tumor volume, tumor proliferation curve) [1] | proliferation / cell viability (ATP assay) of the cell mass [2] | proliferation / cell viability (ATP assay) of the cell mass [3] | proliferation / cell viability (ATP assay) of the reproduced cell mass [4]
